US11598051B2, “Method for manufacturing a fibrous web” (Kemira Oyj, priority 2017, dated 2023)

Key:
[1] = test system: Total aerobic bacteria (mill's authentic bacterial population); assay: Example 2 laboratory broke storage test: total aerobic bacteria by agar plate cultivation; type: cell-based
Protocol: (§1) This laboratory test was performed with broke sample taken from an alkaline board machine producing 3-ply food-packaging board and the sample included the mill's authentic bacterial population in it. The sample was divided in two different containers, one stored as such and the second one amended with biocide, 50 mg/l of glutaraldehyde as active agent. Containers were closed and stored at +45° C. without mixing i.e. under conditions that simulate situation in broke storage tower during a machine shutdown. Total aerobic bacteria and aerobic spore contents were determined by using conventional agar plate cultivation methods (plate count agar, 2 days incubation at +37° C.) at the beginning of the test and after 3 days of storage time, along with pH and redox measurements.

aerobic spores = assay: Example 2 laboratory broke storage test: aerobic spore content by agar plate cultivation; type: cell-based, bacteria
Protocol: as §1

aerobic bacterial spores [2] = assay: Example 1 laboratory broke test: aerobic bacterial spores by agar plate cultivation; type: cell-based, bacteria; settings: for Bacterial spores: 10 mg/l as total active chlorine, +45° C.
Protocol: (§2) This laboratory test compared efficacy of two oxidizing biocides, namely free active chlorine and stabilized active chlorine, in killing of vegetative bacterial cells and in controlling of bacterial spore formation. Test was performed with authentic bacterial population of a broke sample taken from couch pit of a board machine making 3-ply food-packaging board. Broke sample was divided in equal proportions. Two reference samples were stored as such, the “free active chlorine” sample was treated with sodium hypochlorite, and the “stabilized active chlorine” sample was treated with sodium hypochlorite stabilized by 5,5-dimethylhydantoin (mixed in 1:1 molar ratio to form monochloro-5,5-dimethylhydantoin, MCDMH). Both forms of active chlorine were dosed at 10 ppm (=mg/l as total active chlorine Cl2). Broke samples were stored at +45° C. without mixing. Total aerobic bacteria and aerobic bacterial spores were quantified by using conventional agar plate cultivation methods (Plate Count Agar, incubation at +37° C. for 2 days) at the beginning of the test (untreated reference samples) and after 1 and 2 days of contact time. Broke pH and Redox (mV) values were also monitored.

[3] = test system: Total aerobic bacteria (authentic bacterial population of a broke sample); assay: Example 1 laboratory broke test: total aerobic bacteria by agar plate cultivation; type: cell-based; settings: for Total aerobic bacteria: 10 mg/l as total active chlorine, +45° C.
Protocol: as §2

aerobic bacterial spores [4] = assay: Example 3 board machine biocide programs: aerobic bacterial spores from process locations; parameters: species or system bacteria; settings: for ΔSpore content within the broke system: difference between inlet and outlet
From the text: (§3) This example compares technical performance of two different biocide programs in the broke system of a 3-ply board machine producing food-packaging board. Broke system is a part of the wet-end of the board making process. This board machine has set a hygiene target for the final board that it should contain aerobic bacterial spores less than 1000 CFU, and preferably less than 250 CFU, per gram of dry board.
(§4) In this experiment, for the first period (Days 1-10) the machine was running a biocide program consisting of stabilized active chlorine (MCDMH) and glutaraldehyde. For the second period, the machine was running chlorine dioxide, a non-stabilized oxidizer, as the biocide. It was running for 10 days starting from a shutdown (Days 15-25). Third period (Days 26-47) was run with the same MCDMH and glutaraldehyde program as the first period. During this experiment technical performance of the two different biocide programs was monitored at selected dates by several means: on-line Redox monitoring system collecting Redox values at every 10 minutes (results are shown as daily average mV values); measuring aerobic spore content of the final board samples; and by measuring aerobic bacterial spore quantities from different process locations by using agar plate cultivation methods (pasteurization at 82° C. for 20 min, followed by cultivation on Plate Count Agar for 2 days at +37° C.).

aerobic bacterial spores [5] = assay: Example 3 board machine biocide programs: aerobic spore content of final board; parameters: species or system bacteria
From the text: as §3, §4

[6] = broke, 50 mg/l as active agent, +45° C., closed, after 3 days storage time
[7] = Day 15, second period (Days 15-25)
[8] = Day 19, second period (Days 15-25)
[9] = Day 25, second period (Days 15-25)

O=CCCCC=O [glutaraldehyde]
killing effect ([1]; 50 mg/l, 3 days of storage): did not have a long-lasting killing effect | total aerobic bacteria relative to the untreated reference ([1]; 50 mg/l, after 3 days of storage): 40% | Total aerobic bacteria [1, 6]: 2×10^7 CFU/ml | spore formation in the broke sample (aerobic spores; 50 mg/l, 3 days of storage): not triggering any spore formation | Bacterial spores (aerobic spores; [6]): 80 CFU/ml

[Na+].[O-]Cl [Na-hypochlorite, sodium hypochlorite]
Bacterial spores (aerobic bacterial spores [2]; 1 days storage time): 60 CFU/ml | Bacterial spores (aerobic bacterial spores [2]; 2 days storage time): 670 CFU/ml | increase in the quantity of aerobic spores (aerobic bacterial spores [2]; 10 ppm, 1 day to 2 days storage (60 to 670 CFU/ml)): 10 fold | Total aerobic bacteria ([3]; broke, 1 days storage time): 4 × 10^5 CFU/ml | Total aerobic bacteria ([3]; broke, 2 days storage time): 2 × 10^7 CFU/ml | killing effect ([3]; broke, 10 ppm dosing level): did not demonstrate any longer-term killing effect | total aerobic bacteria content ([3]; broke, 10 ppm, after 1 day of storage): 4×10^5 CPU/ml

CC1(C)NC(=O)N(Cl)C1=O [MCDMH, monochloro-5,5-dimethylhydantoin]
spore formation in the broke (aerobic bacterial spores [2]; 10 mg/l as active chlorine, 2 days experiment): did not cause any new spore formation | spore counts (aerobic bacterial spores [2]; 10 mg/l as active chlorine, during the 2 days experiment): 30-60 CPU/ml | Bacterial spores (aerobic bacterial spores [2]; 1 days storage time): 30 CFU/ml | Bacterial spores (aerobic bacterial spores [2]; 2 days storage time): 60 CFU/ml | stronger reduction of total aerobic bacteria content compared to free chlorine ([3]; 10 mg/l as active chlorine, after 1 day of storage): 1 log unit | Total aerobic bacteria ([3]; broke, 1 days storage time): 6×10^4 CFU/ml | Total aerobic bacteria ([3]; broke, 2 days storage time): 2 × 10^7 CFU/ml | spores in incoming pulp (aerobic bacterial spores [4]; first period (Days 1-10)): 30-80 CFU/ml | spores in pulp transportation water (aerobic bacterial spores [4]; first period (Days 1-10)): 15 CFU/ml

[O][Cl+][O-] [chlorine dioxide]
Bacterial Spores in Final Board (aerobic bacterial spores [5]; [7]): 520 CFU/g | Bacterial Spores in Final Board (aerobic bacterial spores [5]; [8]): 5530 CFU/g | Bacterial Spores in Final Board (aerobic bacterial spores [5]; Day 21, second period (Days 15-25)): 9580 CFU/g | Bacterial Spores in Final Board (aerobic bacterial spores [5]; [9]): 3210 CFU/g | spore content in the final board, highest value (aerobic bacterial spores [5]; second period (Days 15-25)): ≤ 9580 CFU/g | Aerobic Bacterial Spores in process, High consistency (4-6 w/w-%) broke tower (aerobic bacterial spores [4]; [7]): 440 CFU/ml | Aerobic Bacterial Spores in process, Incoming Pulp (aerobic bacterial spores [4]; [7]): 20 CFU/ml | Aerobic Bacterial Spores in process, Low consistency (1-4 w/w-%) broke tower (aerobic bacterial spores [4]; [7]): 250 CFU/ml | ΔSpore content within the broke system (aerobic bacterial spores [4]; Day 15, second period): +190 CFU/ml | Aerobic Bacterial Spores in process, High consistency (4-6 w/w-%) broke tower (aerobic bacterial spores [4]; [8]): 1100 CFU/ml | Aerobic Bacterial Spores in process, Incoming Pulp (aerobic bacterial spores [4]; [8]): 60 CFU/ml | Aerobic Bacterial Spores in process, Low consistency (1-4 w/w-%) broke tower (aerobic bacterial spores [4]; [8]): 610 CFU/ml | ΔSpore content within the broke system (aerobic bacterial spores [4]; Day 19, second period): +490 CFU/ml | Aerobic Bacterial Spores in process, High consistency (4-6 w/w-%) broke tower (aerobic bacterial spores [4]; [9]): 950 CFU/ml | Aerobic Bacterial Spores in process, Low consistency (1-4 w/w-%) broke tower (aerobic bacterial spores [4]; [9]): 850 CFU/ml | ΔSpore content within the broke system (aerobic bacterial spores [4]; Day 25, second period): +100 CFU/ml | spore formation in the broke system (aerobic bacterial spores [4]; second period (Days 15-25)): triggered intensive spore formation | spore quantities in the high consistency broke tower (aerobic bacterial spores [4]; second period (Days 15-25), maximum): up to 1100 CFU/ml
